Measured values from patent publication US20230159509A1 (Amathus Therapeutics, Inc., priority 2020, published 2023).

Target: T1, TRAP1 enzyme (Homo sapiens, UniProt Q12931)
T1 construct: 150 nM Trap1 enzyme was incubated with various concentrations of the test compound
T1 sequence (Q12931 60-704): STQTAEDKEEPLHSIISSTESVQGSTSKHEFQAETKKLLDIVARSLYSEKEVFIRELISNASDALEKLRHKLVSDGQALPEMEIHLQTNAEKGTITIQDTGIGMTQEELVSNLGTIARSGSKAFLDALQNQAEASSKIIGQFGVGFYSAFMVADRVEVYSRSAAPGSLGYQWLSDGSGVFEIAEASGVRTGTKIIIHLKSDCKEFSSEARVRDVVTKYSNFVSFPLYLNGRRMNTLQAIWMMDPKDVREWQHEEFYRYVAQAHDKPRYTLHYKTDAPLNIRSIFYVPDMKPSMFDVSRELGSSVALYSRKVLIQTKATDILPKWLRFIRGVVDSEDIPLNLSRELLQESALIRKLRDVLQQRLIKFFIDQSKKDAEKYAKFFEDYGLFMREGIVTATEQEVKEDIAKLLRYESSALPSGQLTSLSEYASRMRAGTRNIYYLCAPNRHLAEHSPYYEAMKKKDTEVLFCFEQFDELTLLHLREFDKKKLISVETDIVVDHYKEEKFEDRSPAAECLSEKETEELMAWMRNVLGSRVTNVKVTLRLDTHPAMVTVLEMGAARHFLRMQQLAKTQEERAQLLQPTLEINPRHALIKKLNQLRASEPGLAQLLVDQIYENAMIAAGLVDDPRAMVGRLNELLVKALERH
Assay: ADP Glo assay of TRAP1 ATPase activity
Format: biochemical
Settings: for EC50: concentration for half maximal activation, read-out: ADP GLO DRC: GeoMean EC50; for Emax: maximal percent activation, read-out: ADP GLO DRC: Mean Emax; for activation at 50 µM: 1 h, compound concentration 50 μM, read-out: ADP-Glo Percent Activation at 50 μM
Method: Potency of test compounds to modulate the ATPase activity of TRAP1 enzyme was evaluated using ADP Glo assay. The assay is based on quantification of the ADP generated from ATP in the ATPase reaction. The assay is performed in two steps; first, after the ATPase reaction an equal volume of ADP-Glo™ Reagent is added to terminate the ATPase reaction and deplete the remaining ATP. Second, the Kinase Detection Reagent is added to simultaneously convert ADP to ATP and allow the newly synthesized ATP to be measured using a luciferase/luciferin reaction.
All the assays were carried out in a 384-well Proxiplate. The buffer used was 25 mM Pipes pH-7.5, 40 mM KCl, 0.05 mM MgCl2, 0.025% BSA, 0.316 mM EGTA, 0.003% Empigen, 0.01% Igepal. 150 nM Trap1 enzyme was incubated with various concentrations of the test compound (0.79 μM-100 μM) at 37° C. for 30 mins (except in blank wells). 20 μM ATP was added to each well to start the reaction. The plate was spun for 1 min at 1200 rpm and then incubated at 37° C. for 60 mins. 5 μl of ADP Glo reagent was added to all the wells and spun the plate for 1 min at 1200 rpm and kept it on a shaker at ambient temperature for 60 mins. 10 μl of kinase detection mix was added to all the wells and the plate was read for Luminescence at 495 nm. The amount of ADP released was estimated from ATP/ADP standard curve generated at the same experimental conditions. Emax (Maximal percent activation) and EC50 (concentration for half maximal activation) were estimated by fitting the dose response data to a sigmoidal curve fitting equation using Graphpad Prism software V. 8.

Structure (SMILES) | EC50 [µM] | Emax [%] | activation at 50 µM [%]
COc1ncc(NC(=O)c2csc(-c3ccccc3)n2)cc1S(=O)(=O)Nc1c(C(F)(F)F)cccc1C(F)(F)F [compound 1970, N-(5-(N-(2,6-bis(trifluoromethyl)phenyl)sulfamoyl)-6-methoxypyridin-3-yl)-2-phenylthiazole-4-carboxamide] | 10 to 20 | 200 to 300 | –
COc1ncc(NC(=O)c2coc(-c3ccccc3)n2)cc1S(=O)(=O)Nc1c(C)cc(C#N)cc1C [compound 1965, N-(5-(N-(4-cyano-2,6-dimethylphenyl)sulfamoyl)-6-methoxypyridin-3-yl)-2-phenyloxazole-4-carboxamide] | < 10 | 119 to 159 | –
O=C(Nc1cc(S(=O)(=O)Nc2ccc(Cl)cc2)cc[n+]1[O-])c1cnc(-c2ccccc2)[nH]1 [compound 1321, 4-(N-(4-chlorophenyl)sulfamoyl)-2-(2-phenyl-1H-imidazole-5-carboxamido) pyridine 1-oxide] | 10 to 20 | 160 to 199 | –
COc1ncc(NC(=O)c2cccc(N3CCOCC3)c2C)cc1S(=O)(=O)Nc1c(C)cccc1C [compound 2782] | – | – | 181 to 352
COc1ncc(NC(=O)c2ncc(-c3ccccc3)o2)cc1S(=O)(=O)Nc1cccc2cncc(C)c12 [compound 1513] | < 10 | 160 to 199 | –
COc1ncc(NC(=O)c2csc(-c3ccccc3)n2)cc1S(=O)(=O)N(CC(O)CO)c1ccc(Cl)cc1 (centres unmarked) [compound 2431] | < 10 | 160 to 199 | –
COc1ncc(NC(=O)c2csc(-c3ccccc3)n2)cc1S(=O)(=O)Nc1cc(C)cnc1C [compound 1792] | 20 to 100 | 119 to 159 | –
COc1ncc(NC(=O)c2ncc(-c3ccccc3)o2)cc1S(=O)(=O)Nc1cc(-c2ccccc2C)nn1C [compound 1567] | 20 to 100 | 200 to 300 | –
COc1ncc(NC(=O)c2csc(-c3ccccc3)n2)cc1S(=O)(=O)Nc1ncc(Cl)cn1 [compound 1383, N-(5-(N-(5-chloropyrimidin-2-yl)sulfamoyl)-6-methoxypyridin-3-yl)-2-phenylthiazole-4-carboxamide] | 20 to 100 | > 300 | –
COc1ncc(NC(=O)c2ncoc2C(C)C)cc1S(=O)(=O)Nc1ccc(Cl)cc1 [compound 2487] | 10 to 20 | 160 to 199 | –
COc1ncc(NC(=O)c2ccnc(-c3cccnc3)c2)cc1S(=O)(=O)Nc1c(C)cccc1C [compound 1940, N-(5-(N-(2,6-dimethylphenyl)sulfamoyl)-6-methoxypyridin-3-yl)-[2,3′-bipyridine]-4-carboxamide] | 10 to 20 | > 300 | –
COc1ncc(NC(=O)c2csc(-c3ccccc3)n2)cc1S(=O)(=O)Nc1cc(C)no1 [compound 1784] | 20 to 100 | 119 to 159 | –
COc1ncc(NC(=O)c2csc(-c3ccccc3)n2)cc1S(=O)(=O)Nc1c(C)cc(Cl)cc1C [compound 1388, N-(5-(N-(4-chloro-2,6-dimethylphenyl)sulfamoyl)-6-methoxypyridin-3-yl)-2-phenylthiazole-4-carboxamide] | 10 to 20 | 119 to 159 | –
COc1ncc(NC(=O)c2csc(-c3ccccc3)n2)cc1S(=O)(=O)Nc1cccn2nc(C)nc12 [compound 1768] | 20 to 100 | 200 to 300 | –
COc1ncc(NC(=O)c2csc(-c3ccccc3)n2)cc1S(=O)(=O)Nc1c(C)cccc1O [compound 1953, N-(5-(N-(2-hydroxy-6-methylphenyl)sulfamoyl)-6-methoxypyridin-3-yl)-2-phenylthiazole-4-carboxamide] | 20 to 100 | 119 to 159 | –
COc1ncc(NC(=O)c2ccccc2C(=O)c2ccccc2)cc1S(=O)(=O)Nc1ccc(Cl)cc1 [compound 1197, 2-benzoyl-N-(5-(N-(4-chlorophenyl)sulfamoyl)-6-methoxypyridin-3-yl)benzamide] | < 10 | 160 to 199 | –
COc1ncc(NC(=O)c2csc(-c3ccccc3)n2)cc1S(=O)(=O)Nc1sccc1C [compound 1954, N-(6-methoxy-5-(N-(3-methylthiophen-2-yl)sulfamoyl)pyridin-3-yl)-2-phenylthiazole-4-carboxamide] | 20 to 100 | 119 to 159 | –
COc1ncc(NC(=O)c2coc(-c3ccccc3)n2)cc1S(=O)(=O)Nc1cc(F)c(F)cc1C [compound 2002] | 10 to 20 | 160 to 199 | –

More lines, now with the values ahead:

EC50 [µM] | Emax [%] | activation at 50 µM [%] | Structure (SMILES)
– | – | 151 to 180 | COc1ncc(NC(=O)c2coc(C3CCCCC3)n2)cc1S(=O)(=O)Nc1c(C)cccc1C [compound 2743]
– | – | 120 to 150 | COc1ncc(NC(=O)c2ccnn2C)cc1S(=O)(=O)Nc1c(C)cccc1C [compound 2559]
20 to 100 | 200 to 300 | – | COc1ncc(NC(=O)c2coc(-c3cccnc3)n2)cc1S(=O)(=O)Nc1c(C)cccc1C [compound 2387]
– | – | 181 to 352 | COc1ncc(NC(=O)c2cccn3cnnc23)cc1S(=O)(=O)Nc1c(C)cccc1C [compound 2625]
– | – | 151 to 180 | COc1ncc(NC(=O)c2ccccc2[S@+](C)[O-])cc1S(=O)(=O)Nc1c(C)cccc1C [compound 2581]
– | – | 151 to 180 | COc1ncc(NC(=O)c2cnn(C)c2Cl)cc1S(=O)(=O)Nc1c(C)cccc1C [compound 2638]
– | – | 120 to 150 | COCc1c[nH]c(C(=O)Nc2cnc(OC)c(S(=O)(=O)Nc3c(C)cccc3C)c2)c1 [compound 2785]
– | – | 120 to 150 | COc1ncc(NC(=O)c2ncn(C)c2C(F)(F)F)cc1S(=O)(=O)Nc1c(C)cccc1C [compound 2672]
– | – | 181 to 352 | COc1ncc(NC(=O)c2cccc(NC(C)=O)c2)cc1S(=O)(=O)Nc1c(C)cccc1C [compound 2696]
– | – | 151 to 180 | COc1ncc(NC(=O)c2cccc3c2CCCC3)cc1S(=O)(=O)Nc1c(C)cccc1C [compound 2574]
– | – | 181 to 352 | CCc1cc(C(=O)Nc2cnc(OC)c(S(=O)(=O)Nc3c(C)cccc3C)c2)nn1C [compound 2786]
– | – | 151 to 180 | COc1ncc(NC(=O)c2scnc2C(F)(F)F)cc1S(=O)(=O)Nc1c(C)cccc1C [compound 2649]
20 to 100 | 160 to 199 | – | COc1ncc(NC(=O)c2cccc3ncn(C)c23)cc1S(=O)(=O)Nc1c(C)cccc1C [compound 1394, N-(5-(N-(2,6-dimethylphenyl)sulfamoyl)-6-methoxypyridin-3-yl)-1-methyl-1H-benzo[d]imidazole-7-carboxamide]
– | – | 151 to 180 | COc1ncc(NC(=O)c2cc3n(n2)CCC3)cc1S(=O)(=O)Nc1c(C)cccc1C [compound 2663]
– | – | 151 to 180 | COc1ncc(NC(=O)c2[nH]ncc2Cl)cc1S(=O)(=O)Nc1c(C)cccc1C [compound 2779]
– | – | 120 to 150 | COc1ncc(NC(=O)c2ncco2)cc1S(=O)(=O)Nc1c(C)cccc1C [compound 2712]
20 to 100 | 200 to 300 | – | COc1ncc(NC(=O)c2csc3c2CN(C)CC3)cc1S(=O)(=O)Nc1c(C)cccc1C [compound 1956, N-(5-(N-(2,6-dimethylphenyl)sulfamoyl)-6-methoxypyridin-3-yl)-5-methyl-4,5,6,7-tetrahydrothieno[3,2-c]pyridine-3-carboxamide]
– | – | 181 to 352 | COc1ncc(NC(=O)c2nc(C)cs2)cc1S(=O)(=O)Nc1c(C)cccc1C [compound 2629]
– | – | 151 to 180 | COc1cncc(C(=O)Nc2cnc(OC)c(S(=O)(=O)Nc3c(C)cccc3C)c2)c1 [compound 2545]
– | – | 151 to 180 | COc1ncc(NC(=O)c2cn3c(n2)CCCC3)cc1S(=O)(=O)Nc1c(C)cccc1C [compound 2771]
– | – | 151 to 180 | COc1ncc(NC(=O)c2nn(C)cc2F)cc1S(=O)(=O)Nc1c(C)cccc1C [compound 2624]
– | – | 151 to 180 | CCc1cc(C(=O)Nc2cnc(OC)c(S(=O)(=O)Nc3c(C)cccc3C)c2)no1 [compound 2690]
20 to 100 | > 300 | – | COc1ncc(NC(=O)c2ccnc3c2OCCC3)cc1S(=O)(=O)Nc1c(C)cccc1C [compound 1364, N-(5-(N-(2,6-dimethylphenyl)sulfamoyl)-6-methoxypyridin-3-yl)-3,4-dihydro-2H-pyrano[3,2-b]pyridine-8-carboxamide]
